The values that follow are results of earlier work, collected in patent publication US7169586B2, “Mutant N-acetylglutamate synthase and method for L-arginine production” (Ajinomoto Co., Inc., priority 2000, dated 2007).

For data set [1], the system named is argA expression. The note with it: Cunin et al. 1986; Leisinger and Haas 1975.
Data set [2] has as its target NAGS (Escherichia coli, UniProt P0A6C5). The settings on record: Leisinger and Haas 1975; read-out: Ki, inhibition of NAGS activity.

Molecules are shown by their SMILES. pKi: −log10 of the molar value.

Sequence of NAGS (P0A6C5 whole entry): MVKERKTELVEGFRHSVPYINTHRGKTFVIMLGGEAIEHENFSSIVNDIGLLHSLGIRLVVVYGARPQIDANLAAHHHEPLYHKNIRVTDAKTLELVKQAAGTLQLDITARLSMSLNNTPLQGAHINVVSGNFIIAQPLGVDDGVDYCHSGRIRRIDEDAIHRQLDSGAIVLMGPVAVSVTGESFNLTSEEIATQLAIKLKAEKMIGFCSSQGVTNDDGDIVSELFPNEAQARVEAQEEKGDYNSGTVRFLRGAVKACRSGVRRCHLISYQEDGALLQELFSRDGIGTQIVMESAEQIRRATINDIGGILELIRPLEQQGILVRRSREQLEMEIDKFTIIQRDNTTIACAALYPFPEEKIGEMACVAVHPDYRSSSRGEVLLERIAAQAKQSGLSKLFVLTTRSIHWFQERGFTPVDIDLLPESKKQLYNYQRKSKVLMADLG

As a reminder, the pKi is the Ki on a negative log10 scale, so that one unit is a factor of ten. With `N=C(N)NCCC[C@H](N)C(=O)O` [L-Arginine], the “repression ratio of argA expression” value in data set [1] is on record as “greater than 250”. Further, in data set [2], the pKi is 4.70.
